Tests used:
[1] = biological target: T1, Purine nucleoside phosphorylase (Homo sapiens, UniProt P00491); test: Inhibition of human erythrocyte purine nucleoside phosphorylase (PNPase) in the presence of ethylenediaminetetraacetic acid (Na2 EDTA)
T1 sequence (P00491 whole entry): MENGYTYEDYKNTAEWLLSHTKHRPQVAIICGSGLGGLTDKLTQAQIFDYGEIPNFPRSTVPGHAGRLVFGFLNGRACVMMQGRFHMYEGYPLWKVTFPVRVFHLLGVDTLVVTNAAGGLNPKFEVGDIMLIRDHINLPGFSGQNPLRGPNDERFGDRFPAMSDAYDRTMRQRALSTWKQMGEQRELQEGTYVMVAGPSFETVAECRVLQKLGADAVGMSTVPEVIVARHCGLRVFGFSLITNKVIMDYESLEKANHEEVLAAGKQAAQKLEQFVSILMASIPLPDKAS

[2] = biological target: T1, Purine nucleoside phosphorylase; test: Inhibition of human erythrocyte purine nucleoside phosphorylase (PNPase) in the presence of zinc chloride

Row | Structure (SMILES) | Ki [1] | Ki [2]
1 | CCOP(=O)(O)CP(=O)(O)CCCCCn1cnc2c(O)nc(N)nc21 | 14000 nM | 1100 nM
2 | Nc1nc(O)c2ncn(CCCCP(=O)(O)CP(=O)(O)O)c2n1 | 1400 nM | 100 nM
3 | O=c1[nH]c(=O)c2ncn(CCCCCP(=O)(O)CP(=O)(O)O)c2[nH]1 | 270000 nM | 1400 nM
4 | Nc1nc(O)c2ncn(CCCCCCCP(=O)(O)CP(=O)(O)O)c2n1 | 1100 nM | 10 nM
5 | Nc1nc(O)c2ncn(CCCCCCP(=O)(O)CP(=O)(O)O)c2n1 | 390 nM | 3.7 nM

Source: ChEMBL document CHEMBL1128258, “[[(Guaninylalkyl)phosphinico]methyl]phosphonic acids. Multisubstrate analogue inhibitors of human erythrocyte purine nucleoside phosphorylase” (J Med Chem, 1995)
